According to patent US20220145343A1 (priority 2019, published 2022):
Values joined by “and” are separate entries in the source; they are usually repeats but may differ in a detail not shown here. Equal values may be shown once. Marks after values point to notes of the source that are not given here.

Assays:
[1] = system: α1-4-galactosyltransferase activity of NmSiaDW; assay: Donor substrate specificity for the α1-4-galactosyltransferase activity of NmSiaDW using different sugar nucleotides (acceptor S3); assay type: biochemical, Neisseria meningitidis; settings: for Percentage conversion (%): acceptor S3 1 mM, donor 2 mM, 30° C.
Experimental: Galactosyltransferase activity was assayed in reaction buffer (100 mM MES, pH 6.5, 10 mM MgCl2) in the presence of 2 mM UDP-sugars and 1 mM Neu5Acα2-6Galα1-4Neu5AcαProNHCbz in a total volume of 10 μL. Reaction was performed at 30° C. with 0.11 μg NmSiaDW for 10 min or 6.6 μg NmSiaDW for 10 h. Reaction was quenched by addition of 10 μL pre-chilled ethanol and incubated at −20° C. for 30 min. […] GDP-Fuc and CMP-Neu5Ac were also included.
Samples were analyzed using UPLC with EcilpsePlusC18 column or AdvancBio Glycan Map column, Agilent. The samples were further analyzed by electrospray ionization (ESI)-HRMS using a Thermo Electron LTQ-Orbitrap Hybrid MS in a negative mode.

[2] = target: NmSiaDW sialyltransferase activity (Neisseria meningitidis, UniProt O33390); settings: apparent; varying acceptor, 10 mM CMP-Neu5Ac, pH 8.0, 30° C.
Chain of NmSiaDW sialyltransferase activity (O33390 1-1037): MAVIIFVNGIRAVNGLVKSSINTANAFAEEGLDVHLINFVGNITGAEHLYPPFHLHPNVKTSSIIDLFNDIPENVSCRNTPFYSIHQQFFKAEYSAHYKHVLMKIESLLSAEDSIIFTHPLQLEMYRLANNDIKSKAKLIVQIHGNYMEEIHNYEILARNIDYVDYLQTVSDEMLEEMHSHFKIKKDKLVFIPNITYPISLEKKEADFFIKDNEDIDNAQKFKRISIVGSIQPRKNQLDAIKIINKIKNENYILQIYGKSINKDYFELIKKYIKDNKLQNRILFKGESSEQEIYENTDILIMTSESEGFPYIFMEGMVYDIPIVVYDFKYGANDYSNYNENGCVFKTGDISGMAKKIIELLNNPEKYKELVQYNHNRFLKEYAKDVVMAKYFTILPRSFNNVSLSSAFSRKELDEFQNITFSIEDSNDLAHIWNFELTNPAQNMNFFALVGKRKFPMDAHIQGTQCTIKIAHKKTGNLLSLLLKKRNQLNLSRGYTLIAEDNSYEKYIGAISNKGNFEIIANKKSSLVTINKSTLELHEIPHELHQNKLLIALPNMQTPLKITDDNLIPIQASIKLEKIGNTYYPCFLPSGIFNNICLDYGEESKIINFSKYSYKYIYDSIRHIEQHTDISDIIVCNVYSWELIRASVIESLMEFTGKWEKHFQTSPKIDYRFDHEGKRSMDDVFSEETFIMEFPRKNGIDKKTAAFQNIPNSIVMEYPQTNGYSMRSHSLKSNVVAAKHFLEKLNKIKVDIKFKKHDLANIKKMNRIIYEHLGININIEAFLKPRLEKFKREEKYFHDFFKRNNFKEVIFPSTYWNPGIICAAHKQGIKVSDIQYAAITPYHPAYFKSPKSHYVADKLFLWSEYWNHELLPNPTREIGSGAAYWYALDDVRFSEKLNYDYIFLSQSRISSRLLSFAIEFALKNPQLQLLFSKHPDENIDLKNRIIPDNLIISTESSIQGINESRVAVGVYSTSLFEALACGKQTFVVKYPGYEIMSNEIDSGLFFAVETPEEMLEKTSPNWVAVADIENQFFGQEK

[3] = target: NmCSS (Neisseria meningitidis, UniProt P0A0Z8); assay type: biochemical; settings: step 1 in the presence of NmCSS (0.75 mg/mL) for 10 h
Chain of NmCSS (P0A0Z8 whole entry): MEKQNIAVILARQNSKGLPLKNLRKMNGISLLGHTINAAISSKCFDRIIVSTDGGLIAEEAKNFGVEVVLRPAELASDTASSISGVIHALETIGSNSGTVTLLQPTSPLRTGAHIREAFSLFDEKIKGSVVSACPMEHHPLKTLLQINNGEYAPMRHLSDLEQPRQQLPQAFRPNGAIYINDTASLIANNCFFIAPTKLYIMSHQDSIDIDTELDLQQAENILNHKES

[4] = system: α1-4-galactosyltransferase activity of NmSiaDW; assay type: biochemical, Neisseria meningitidis
[5] = system: α2-6-sialyltransferase activity of NmSiaDW; assay type: biochemical, Neisseria meningitidis
[6] = system: NmCSS and PmAldolase; assay type: biochemical, Neisseria meningitidis; Pasteurella multocida
[7] = target: NmSiaDW galactosyltransferase activity (Neisseria meningitidis, UniProt O33390); settings: apparent; varying acceptor, 2 mM UDP-Gal, pH 6.5, 30° C.
Chain of NmSiaDW galactosyltransferase activity (O33390 1-1037): as the sequence (O33390 1-1037) above

`CC(=O)N[C@H]1[C@H]([C@H](O)[C@H](O)CO)O[C@](OP(=O)(O)OC[C@H]2O[C@@H](n3ccc(N)nc3=O)[C@H](O)[C@@H]2O)(C(=O)O)C[C@@H]1O` [CMP-Neu5Ac, cytidine-5′-monophosphate Neu5Ac] was tested, and the “Percentage conversion (%)” value ([1]; 11 μg/mL NmSiaDW, 10 min) was 0% and the “Percentage conversion (%)” value ([1]; 0.66 mg/mL NmSiaDW, 10 h) was 0%.

For `CC(=O)N[C@H]1[C@H]([C@H](O)[C@H](O)CO)O[C@@](OC[C@H]2O[C@H](O[C@H]3C[C@](OCCCNC(=O)OCc4ccccc4)(C(=O)O)O[C@@H]([C@H](O)[C@H](O)CO)[C@@H]3NC(C)=O)[C@H](O)[C@@H](O)[C@H]2O)(C(=O)O)C[C@@H]1O[C@H]1O[C@H](CO)[C@H](O)[C@H](O)[C@H]1O` [G4, Galα1-4Neu5Acα2-6Galα1-4Neu5AcαProNHCbz], the kcat [2] was 23.1 ± 1.1 s⁻¹.

Work on `CC(=O)N[C@H]1[C@H]([C@H](O)[C@H](O)CO)O[C@@](OC[C@H]2O[C@H](O[C@H]3C[C@](OC[C@H]4O[C@H](O[C@H]5C[C@](OCCCNC(=O)OCc6ccccc6)(C(=O)O)O[C@@H]([C@H](O)[C@H](O)CO)[C@@H]5NC(C)=O)[C@H](O)[C@@H](O)[C@H]4O)(C(=O)O)O[C@@H]([C@H](O)[C@H](O)CO)[C@@H]3NC(C)=O)[C@H](O)[C@@H](O)[C@H]2O)(C(=O)O)C[C@@H]1O[C@H]1O[C@H](CO)[C@H](O)[C@H](O)[C@H]1O` [G6, Galα1(-4Neu5Acα2-6Galα1)2-4Neu5AcαProNHCbz] yielded a Km [2] of 230 ± 40 µM and a kcat [2] of 11.9 ± 0.5 s⁻¹.

For `CC(=O)N[C@H]1[C@H]([C@H](O)[C@H](O)CO)O[C@@](OC[C@H]2O[C@H](O[C@H]3C[C@](OC[C@H]4O[C@H](O[C@H]5C[C@](OC[C@H]6O[C@H](O[C@H]7C[C@](OCCCNC(=O)OCc8ccccc8)(C(=O)O)O[C@@H]([C@H](O)[C@H](O)CO)[C@@H]7NC(C)=O)[C@H](O)[C@@H](O)[C@H]6O)(C(=O)O)O[C@@H]([C@H](O)[C@H](O)CO)[C@@H]5NC(C)=O)[C@H](O)[C@@H](O)[C@H]4O)(C(=O)O)O[C@@H]([C@H](O)[C@H](O)CO)[C@@H]3NC(C)=O)[C@H](O)[C@@H](O)[C@H]2O)(C(=O)O)C[C@@H]1O[C@H]1O[C@H](CO)[C@H](O)[C@H](O)[C@H]1O` [G8, Galα1(-4Neu5Acα2-6Galα1)3-4Neu5AcαProNHCbz], the Km [2] was 250 ± 40 µM and the kcat [2] was 10.3 ± 0.5 s⁻¹.

`C[C@@H]1O[C@H](OP(=O)(O)OP(=O)(O)OC[C@H]2O[C@@H](n3cnc4c(=O)[nH]c(N)nc43)[C@H](O)[C@@H]2O)[C@@H](O)[C@H](O)[C@@H]1O` [GDP-Fucose] was tested, and the “Percentage conversion (%)” value ([1]; 11 μg/mL NmSiaDW, 10 min) was 0% and the “Percentage conversion (%)” value ([1]; 0.66 mg/mL NmSiaDW, 10 h) was 0%.

With `O=C(O)C(=O)C[C@H](O)[C@@H](O)[C@@H](O)[C@H](O)[C@H](O)CO` [Kdn, 2-keto-3-deoxynonulosonic acid] the “Percentage conversion (%) CMP-Sialic acid” value [3] was “Quantitative ^a”.

`CC(=O)NC1C(OCCCCl)OC(CO)C(O)C1OC1OC(CO)C(O)C(OC2(C(=O)O)CC(O)C(N=[N+]=[N-])C(C(N=[N+]=[N-])C(C)O)O2)C1O` (stereo not drawn) [Leg5,7diN3α2-3Galβ1-3GalNAcβProCl] was tested, and the Product [4] was “√”.

With `[N-]=[N+]=N[C@H](C=O)[C@@H](O)[C@H](O)[C@H](O)CO` [Man2N3, 2-azido-2-deoxy-mannose] the “Percentage conversion (%) Transferase Reaction” value [5] was 0% and the “Percentage conversion (%) CMP-Sialic acid” value [6] was 77 ± 1 ^b %.

With `CC(=O)N[C@@H]1C(O)O[C@H](CO)[C@@H](N=[N+]=[N-])[C@@H]1O` (stereo partly shown) [ManNAc4N3, 4-azido-4-deoxy-N-acetylmannosamine] the “Percentage conversion (%) CMP-Sialic acid” value [6] was 90 ± 3 ^b %.

With `CC(=O)N[C@@H]1C(O)O[C@H](CN=[N+]=[N-])[C@@H](O)[C@@H]1O` (stereo partly shown) [ManNAc6N3, 6-azido-6-deoxy-N-acetylmannosamine] the “Percentage conversion (%) CMP-Sialic acid” value [6] was 91 ± 10 ^b %.

In the case of `CC(=O)NC[C@@H](O)[C@@H](O)[C@H](O)[C@@H](C=O)NC(C)=O` [ManNAc6NAc, 6-N-acetyl-6-deoxy-N-acetylmannosamine], the “Percentage conversion (%) Transferase Reaction” value [5] is reported as 0% and the “Percentage conversion (%) CMP-Sialic acid” value [6] is reported as 87 ± 2 ^b %.

`[N-]=[N+]=NCC(=O)N[C@@H]1C(O)O[C@H](CO)[C@@H](O)[C@@H]1O` (stereo partly shown) [ManNAz, N-azidoacetylmannosamine] was tested, and the “Percentage conversion (%) CMP-Sialic acid” value [6] was “Quantitative ^b”.

With `CC(=O)N[C@H]1[C@H]([C@H](O)[C@H](O)CO)OC(O)(C(=O)O)C[C@@H]1OC(C)=O` (stereo partly shown) [Neu4,5Ac, 4-O-acetyl-N-acetylneuraminic acid] the “Percentage conversion (%) Transferase Reaction” value [5] was 0% and the “Percentage conversion (%) CMP-Sialic acid” value [3] was 53 ± 1 ^a %.

In the case of `CC(=O)N[C@H]1[C@H]([C@H](O)[C@H](O)COC(C)=O)OC(O)(C(=O)O)C[C@@H]1O` (stereo partly shown) [Neu5,9Ac, 9-O-acetyl-N-acetylneuraminic acid], the “Percentage conversion (%) Transferase Reaction” value [5] is reported as 0% and the “Percentage conversion (%) CMP-Sialic acid” value [3] is reported as 61 ± 2 ^a %.

`CO[C@H](CO)[C@@H](O)[C@@H]1OC(O)(C(=O)O)C[C@H](O)[C@H]1NC(C)=O` (stereo partly shown) [Neu5Ac8OMe, 8-O-methyl-N-acetylneuraminic acid] was tested, and the “Percentage conversion (%) CMP-Sialic acid” value [3] was 79 ± 1 ^a %.

In the case of `CC(=O)N[C@H]1[C@H]([C@H](O)[C@H](O)CO)OC(O)(C(=O)O)C[C@@H]1O` (stereo partly shown) [Neu5Ac, N-acetylneuraminic acid], the “Percentage conversion (%) CMP-Sialic acid” value [3] is reported as “Quantitative ^a”.

`CC(=O)NC1C(O)CC(OC2C(O)C(CO)OC(OC3C(O)C(CO)OC(OCCCN=[N+]=[N-])C3NC(C)=O)C2O)(C(=O)O)OC1C(O)C(O)CO` (stereo not shown) [Neu5Acα2-3Galβ1-3GalNAcβProN3] was tested, and the Product [4] was “√” and the “acceptor substrate suitability in words” value [4] was “could also tolerate”.

With `CC(=O)NC1C(O)CC(OCC2OC(OCCCN)C(O)C(O)C2O)(C(=O)O)OC1C(O)C(O)CO` (stereo not shown) [Neu5Acα2-6GalβProNH2] the Product [4] was “√”.

In the case of `CC(=O)N[C@H]1[C@H]([C@H](O)[C@H](O)CO)OC(OC[C@H]2O[C@@H](Oc3ccc([N+](=O)[O-])cc3)[C@H](O)[C@@H](O)[C@H]2O)(C(=O)O)C[C@@H]1O` (stereo partly shown) [Neu5Acα2-6GalβpNP], the Product [4] is reported as “√”.

With `O=C(CO)N[C@H]1[C@H]([C@H](O)[C@H](O)CO)OC(O)(C(=O)O)C[C@@H]1O` (stereo partly shown) [Neu5Gc, N-glycolylneuraminic acid] the “Percentage conversion (%) Transferase Reaction” value [5] was 47 ± 3% and 88 ± 3% and the “Percentage conversion (%) CMP-Sialic acid” value [3] was 90 ± 2 ^a %.

`CC(=O)N[C@H]1[C@H]([C@H](O)[C@H](O)CO)O[C@@](OCCCNC(=O)OCc2ccccc2)(C(=O)O)C[C@@H]1O[C@H]1O[C@H](CO[C@]2(C(=O)O)C[C@H](O[C@H]3O[C@H](CO[C@]4(C(=O)O)C[C@H](O[C@H]5O[C@H](CO[C@]6(C(=O)O)C[C@H](O)[C@@H](NC(C)=O)[C@H]([C@H](O)[C@H](O)CO)O6)[C@H](O)[C@H](O)[C@H]5O)[C@@H](NC(C)=O)[C@H]([C@H](O)[C@H](O)CO)O4)[C@H](O)[C@H](O)[C@H]3O)[C@@H](NC(C)=O)[C@H]([C@H](O)[C@H](O)CO)O2)[C@H](O)[C@H](O)[C@H]1O` [S7, Neu5Acα2(-6Galα1-4Neu5Acα2)3-ProNHCbz] gave a Km [7] of 70 ± 10 µM and a kcat [7] of 5.5 ± 0.2 s⁻¹.

`O=C(O)[C@H]1O[C@H](OP(=O)(O)OP(=O)(O)OC[C@H]2O[C@@H](n3ccc(=O)[nH]c3=O)[C@H](O)[C@@H]2O)[C@H](O)[C@@H](O)[C@H]1O` [UDP-GalA] was tested, and the “Percentage conversion (%)” value ([1]; 11 μg/mL NmSiaDW, 10 min) was 0% and the “Percentage conversion (%)” value ([1]; 0.66 mg/mL NmSiaDW, 10 h) was less than 1%.

For `CC(=O)N[C@H]1[C@@H](OP(=O)(O)OP(=O)(O)OC[C@H]2O[C@@H](n3ccc(=O)[nH]c3=O)[C@H](O)[C@@H]2O)O[C@H](CO)[C@H](O)[C@@H]1O` [UDP-GalNAc], the “Percentage conversion (%)” value ([1]; 11 μg/mL NmSiaDW, 10 min) was 0%, the “Percentage conversion (%)” value ([1]; 0.66 mg/mL NmSiaDW, 10 h) was 1.9 ± 0.2% and the “donor substrate quality in words” value ([1]; compared to UDP-Gal, acceptor S3) was “tolerated as poor donor substrate”.

With `O=C(O)[C@H]1O[C@H](OP(=O)(O)OP(=O)(O)OC[C@H]2O[C@@H](n3ccc(=O)[nH]c3=O)[C@H](O)[C@@H]2O)[C@H](O)[C@@H](O)[C@@H]1O` [UDP-GlcA] the “Percentage conversion (%)” value ([1]; 11 μg/mL NmSiaDW, 10 min) was 0% and the “Percentage conversion (%)” value ([1]; 0.66 mg/mL NmSiaDW, 10 h) was 0%.

In the case of `CC(=O)N[C@H]1[C@@H](OP(=O)(O)OP(=O)(O)OC[C@H]2O[C@@H](n3ccc(=O)[nH]c3=O)[C@H](O)[C@@H]2O)O[C@H](CO)[C@@H](O)[C@@H]1O` [UDP-GlcNAc], the “Percentage conversion (%)” value ([1]; 11 μg/mL NmSiaDW, 10 min) is reported as 0% and the “Percentage conversion (%)” value ([1]; 0.66 mg/mL NmSiaDW, 10 h) is reported as 0%.

In the case of `CC(=O)N[C@@H]1[C@@H](OP(=O)(O)OP(=O)(O)OC[C@H]2O[C@@H](n3ccc(=O)[nH]c3=O)[C@H](O)[C@@H]2O)O[C@H](CO)[C@@H](O)[C@@H]1O` [UDP-ManNAc], the “Percentage conversion (%)” value ([1]; 11 μg/mL NmSiaDW, 10 min) is reported as 0% and the “Percentage conversion (%)” value ([1]; 0.66 mg/mL NmSiaDW, 10 h) is reported as 0%.

In the case of Leg5,7Ac2α2-3Galβ1-3GalNAcβProN3, the Product [4] is reported as “Not Detected”.

For Neu5Ac7N3α2-6Galα1-4Neu5AcαProNHCbz, the Product [4] was “√”.

For Neu5Ac9N3α2-6Galα1-4Neu5AcαProNHCbz, the Product [4] was “√”.
